These results are taken from patent US11654183B2 (INTARCIA THERAPEUTICS, INC., priority 2017, dated 2023).

By Tmax is commonly meant the time from dosing to the highest level.

For data set [1] the following is noted: cited from earlier work.
For data set [2] the following is noted: human, in vivo, po. Here is the method: APAP, a marker of gastric emptying, was administered on Day (D)1 followed by the cocktail on D2. […] APAP was administered again on D27 and the cocktail on D28.
For data set [3] the following is noted: compared to OC alone, cited from earlier work; for decrease of Cmax: repeated daily doses of OC given 30 minutes after BYETTA (10 mcg BID), healthy female subjects; for decrease of mean Cmax: repeated daily doses of OC one hour prior to BYETTA.
Data set [4] can be described thus: Crossover study of ITCA 650 on steady-state PK and PD of the combination oral contraceptive Levora. Particulars: ITCA 650 60 mcg/day, healthy premenopausal women. Here is the method: Twenty-eight (28) healthy premenopausal women on a stable regimen of an OC participated in a randomized, double-blind, placebo-controlled, 2-period crossover study. […] The study included a 2-week run-in on Levora and 2 treatment periods of 28 days each. […] Subjects were crossed over to the alternative treatment and procedures were repeated in Period 2. The OC was administered daily through D28 of each period.

[5] abbreviates: 1000 mg acetaminophen elixir given 1 hour after 10 mcg BYETTA injection.
[6] abbreviates: 1000 mg acetaminophen elixir given 2 hours after 10 mcg BYETTA injection.
[7] abbreviates: 1000 mg acetaminophen elixir given 4 hours after 10 mcg BYETTA injection.
The mark [8] stands for this setting: 1000 mg acetaminophen elixir given with 10 mcg BYETTA (0 h).
Where [9] appears, read: acetaminophen given 1 hour before BYETTA injection.

SMILES strings stand for the structures. Like-named read-outs stand apart in the source and are kept apart here.

As to `CC(=O)Nc1ccc(O)cc1` [acetaminophen], in data set [1] (setting [5]), the Tmax is 4.2 h, the “decrease of Cmax” value was 56% and the “decrease of acetaminophen AUC” value is reported as 23%. For the same compound, in data set [1] (setting [6]), the Tmax is 3.3 h, the “decrease of Cmax” value is 54% and the “decrease of acetaminophen AUC” value was 24%. Moreover, in data set [1] (setting [7]), the Tmax was 1.6 h, the “decrease of Cmax” value is 41% and the “decrease of acetaminophen AUC” value is recorded as 14%. Further, in data set [1] (setting [8]), the Tmax was 0.9 h, the “decrease of Cmax” value was 37% and the “decrease of acetaminophen AUC” value is on record as 21%. In data set [1] (setting [9]), the AUC change result is reported as “not significantly changed”, the Cmax change entry is on record as “not significantly changed” and the Tmax change entry is “not significantly changed”. Further, the Tmax in data set [1] (control period (without BYETTA)) was 0.6 h. In data set [2], the “effect of ITCA 650 on PK of the co-administered drug” value is listed as “minimal effect”.
On to `C#C[C@]1(O)CC[C@H]2[C@@H]3CCc4cc(O)ccc4[C@H]3CC[C@@]21C` [ethinyl estradiol], for which, in data set [3], the “decrease of Cmax” value was 45% and the “decrease of mean Cmax” value is given as 15%.
For the compound `C#C[C@]1(O)CC[C@H]2[C@@H]3CCC4=CC(=O)CC[C@@H]4[C@H]3CC[C@@]21CC` [levonorgestrel], in data set [4], the “effect of ITCA 650 on PK” value is given as “No effect”. Further, in data set [3], the “decrease of Cmax” value is reported as 27% and the “decrease of mean Cmax” value was “not significantly changed”.
